# From patent EP4467141A1, “PYRAZOLO-QUINOLINES AS SELECTIVE INHIBITORS OF GENOTOXIC STRESS-INDUCED IKK/NF- KB PATHWAYS FOR CANCER THERAPY” (Max-Delbrück-Centrum für Molekulare Medizin in der …, priority 2023, dated 2024)
# Columns and labels:
# Test in all cases: Kinase panel study
# Assay type in all cases: biochemical
# Settings in all cases: read-out: Percentage of inhibition; for inhibition at 1 µM: 1000nM; for inhibition at 10 µM: 10000nM
# TEK (Tie2) = molecular target: T1, TEK (Tie2) (Homo sapiens, UniProt Q02763)
# T1 construct: purchased Thermo Fisher Scientific
# Summary of the method: (§1)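 Single-point inhibition data at 10 µM or 1 µM compound are shown. They were generated in ZLyte- or Adapta-format biochemical assays performed externally under standard conditions.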
# CAMK2B (CaMKII beta) = molecular target: T2, CAMK2B (CaMKII beta) (Homo sapiens, UniProt Q13554)
# T2 construct: purchased Thermo Fisher Scientific
# Summary of the method: as §1
# FGFR2 N549H = molecular target: T3, FGFR2 N549H (Homo sapiens, UniProt P21802, N549H)
# T3 construct: purchased Thermo Fisher Scientific
# Summary of the method: as §1
# PIM1 = molecular target: T4, PIM1 (Homo sapiens, UniProt P11309)
# T4 construct: purchased Thermo Fisher Scientific
# Summary of the method: as §1
# CAMK1D (CaMKI delta) = molecular target: T5, CAMK1D (CaMKI delta) (Homo sapiens, UniProt Q8IU85)
# T5 construct: purchased Thermo Fisher Scientific
# Summary of the method: as §1
# GRK5 = molecular target: T6, GRK5 (Homo sapiens, UniProt P34947)
# T6 construct: purchased Thermo Fisher Scientific
# Summary of the method: as §1
# PRKCG (PKC gamma) = molecular target: T7, PRKCG (PKC gamma) (Homo sapiens, UniProt P05129)
# T7 construct: purchased Thermo Fisher Scientific
# Summary of the method: as §1
# FGFR2 = molecular target: T8, FGFR2 (Homo sapiens, UniProt P21802)
# T8 construct: purchased Thermo Fisher Scientific
# Summary of the method: as §1
# CAMK2A (CaMKII alpha) = molecular target: T9, CAMK2A (CaMKII alpha) (Homo sapiens, UniProt Q9UQM7)
# T9 construct: purchased Thermo Fisher Scientific
# Summary of the method: as §1
# ERBB4 (HER4) = molecular target: T10, ERBB4 (HER4) (Homo sapiens, UniProt Q15303)
# T10 construct: purchased Thermo Fisher Scientific
# Summary of the method: as §1
# LRRK2 R1441C = molecular target: T11, LRRK2 R1441C (Homo sapiens, UniProt Q5S007, R1441C)
# T11 construct: purchased Thermo Fisher Scientific
# Summary of the method: as §1
# MARK2 = molecular target: T12, MARK2 (Homo sapiens, UniProt Q7KZI7)
# T12 construct: purchased Thermo Fisher Scientific
# Summary of the method: as §1
# KDR (VEGFR2) = molecular target: T13, KDR (VEGFR2) (Homo sapiens, UniProt P35968)
# T13 construct: purchased Thermo Fisher Scientific
# Summary of the method: as §1
# RPS6KA5 (MSK1) = molecular target: T14, RPS6KA5 (MSK1) (Homo sapiens, UniProt O75582)
# T14 construct: purchased Thermo Fisher Scientific
# Summary of the method: as §1
# SPHK2 = molecular target: T15, SPHK2 (Homo sapiens, UniProt Q9NRA0)
# T15 construct: purchased Thermo Fisher Scientific
# T15 sequence (Q9NRA0 1-654): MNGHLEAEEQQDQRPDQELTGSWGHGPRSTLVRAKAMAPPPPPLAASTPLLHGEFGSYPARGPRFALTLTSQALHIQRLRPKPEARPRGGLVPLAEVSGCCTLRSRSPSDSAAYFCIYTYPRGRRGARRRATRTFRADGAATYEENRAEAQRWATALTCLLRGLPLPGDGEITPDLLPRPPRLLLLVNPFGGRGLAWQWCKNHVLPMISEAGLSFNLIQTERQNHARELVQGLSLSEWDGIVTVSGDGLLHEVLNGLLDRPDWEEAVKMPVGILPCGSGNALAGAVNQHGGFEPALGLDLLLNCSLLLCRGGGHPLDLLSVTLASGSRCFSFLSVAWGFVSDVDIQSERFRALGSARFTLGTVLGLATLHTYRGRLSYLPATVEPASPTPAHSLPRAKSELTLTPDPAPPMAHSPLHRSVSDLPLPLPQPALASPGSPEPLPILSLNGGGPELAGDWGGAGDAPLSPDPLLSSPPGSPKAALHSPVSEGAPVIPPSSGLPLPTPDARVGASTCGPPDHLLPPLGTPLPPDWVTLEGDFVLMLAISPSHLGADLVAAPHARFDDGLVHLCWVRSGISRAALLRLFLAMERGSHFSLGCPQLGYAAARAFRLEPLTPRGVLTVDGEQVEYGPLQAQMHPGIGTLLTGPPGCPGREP
# Summary of the method: as §1
# T3 sequence (P21802 22-821 N549H): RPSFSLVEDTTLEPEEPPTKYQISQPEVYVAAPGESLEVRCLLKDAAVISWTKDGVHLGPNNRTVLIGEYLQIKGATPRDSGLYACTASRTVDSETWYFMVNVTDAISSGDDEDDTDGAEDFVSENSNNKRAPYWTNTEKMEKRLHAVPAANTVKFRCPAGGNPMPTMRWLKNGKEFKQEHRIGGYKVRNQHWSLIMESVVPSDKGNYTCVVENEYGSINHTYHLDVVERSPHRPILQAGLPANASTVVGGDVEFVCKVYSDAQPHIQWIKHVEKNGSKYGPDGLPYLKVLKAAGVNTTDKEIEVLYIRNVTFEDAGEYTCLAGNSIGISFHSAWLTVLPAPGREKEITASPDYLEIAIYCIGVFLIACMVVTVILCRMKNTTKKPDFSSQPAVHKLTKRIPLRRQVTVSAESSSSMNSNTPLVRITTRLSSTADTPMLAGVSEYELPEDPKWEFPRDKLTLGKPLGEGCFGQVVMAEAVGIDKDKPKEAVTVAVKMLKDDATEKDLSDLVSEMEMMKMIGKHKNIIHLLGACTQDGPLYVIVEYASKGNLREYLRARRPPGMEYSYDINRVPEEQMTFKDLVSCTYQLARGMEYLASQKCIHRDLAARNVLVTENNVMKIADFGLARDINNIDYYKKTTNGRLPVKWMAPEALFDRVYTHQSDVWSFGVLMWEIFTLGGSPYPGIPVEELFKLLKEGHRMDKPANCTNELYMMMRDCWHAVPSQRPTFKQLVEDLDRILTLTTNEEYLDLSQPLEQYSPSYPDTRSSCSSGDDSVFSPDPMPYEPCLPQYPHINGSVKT
# T12 sequence (Q7KZI7 whole entry): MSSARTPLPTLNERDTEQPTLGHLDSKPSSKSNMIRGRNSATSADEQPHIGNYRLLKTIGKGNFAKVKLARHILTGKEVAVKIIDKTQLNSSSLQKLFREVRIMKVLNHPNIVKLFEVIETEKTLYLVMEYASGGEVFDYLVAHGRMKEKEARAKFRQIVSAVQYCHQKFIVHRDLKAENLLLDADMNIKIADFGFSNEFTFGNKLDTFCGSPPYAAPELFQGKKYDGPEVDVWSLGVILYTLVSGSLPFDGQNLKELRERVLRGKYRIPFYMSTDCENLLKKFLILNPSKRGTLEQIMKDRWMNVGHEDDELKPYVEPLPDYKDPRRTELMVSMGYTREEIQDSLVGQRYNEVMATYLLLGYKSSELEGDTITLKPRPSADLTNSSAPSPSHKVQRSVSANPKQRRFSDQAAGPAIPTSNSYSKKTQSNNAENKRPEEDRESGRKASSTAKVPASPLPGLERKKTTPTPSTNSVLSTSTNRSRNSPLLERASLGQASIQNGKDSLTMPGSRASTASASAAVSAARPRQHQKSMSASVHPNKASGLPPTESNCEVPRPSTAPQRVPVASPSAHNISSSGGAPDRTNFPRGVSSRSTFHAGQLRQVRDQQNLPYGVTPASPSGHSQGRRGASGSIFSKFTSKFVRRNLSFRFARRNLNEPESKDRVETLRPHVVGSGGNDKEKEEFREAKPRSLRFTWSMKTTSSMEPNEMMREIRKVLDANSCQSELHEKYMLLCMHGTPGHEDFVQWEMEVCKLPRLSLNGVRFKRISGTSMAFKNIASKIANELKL
# T8 sequence (P21802 22-821): as the sequence (P21802 22-821 N549H) above, with H528N counted along it
# T14 sequence (O75582 whole entry): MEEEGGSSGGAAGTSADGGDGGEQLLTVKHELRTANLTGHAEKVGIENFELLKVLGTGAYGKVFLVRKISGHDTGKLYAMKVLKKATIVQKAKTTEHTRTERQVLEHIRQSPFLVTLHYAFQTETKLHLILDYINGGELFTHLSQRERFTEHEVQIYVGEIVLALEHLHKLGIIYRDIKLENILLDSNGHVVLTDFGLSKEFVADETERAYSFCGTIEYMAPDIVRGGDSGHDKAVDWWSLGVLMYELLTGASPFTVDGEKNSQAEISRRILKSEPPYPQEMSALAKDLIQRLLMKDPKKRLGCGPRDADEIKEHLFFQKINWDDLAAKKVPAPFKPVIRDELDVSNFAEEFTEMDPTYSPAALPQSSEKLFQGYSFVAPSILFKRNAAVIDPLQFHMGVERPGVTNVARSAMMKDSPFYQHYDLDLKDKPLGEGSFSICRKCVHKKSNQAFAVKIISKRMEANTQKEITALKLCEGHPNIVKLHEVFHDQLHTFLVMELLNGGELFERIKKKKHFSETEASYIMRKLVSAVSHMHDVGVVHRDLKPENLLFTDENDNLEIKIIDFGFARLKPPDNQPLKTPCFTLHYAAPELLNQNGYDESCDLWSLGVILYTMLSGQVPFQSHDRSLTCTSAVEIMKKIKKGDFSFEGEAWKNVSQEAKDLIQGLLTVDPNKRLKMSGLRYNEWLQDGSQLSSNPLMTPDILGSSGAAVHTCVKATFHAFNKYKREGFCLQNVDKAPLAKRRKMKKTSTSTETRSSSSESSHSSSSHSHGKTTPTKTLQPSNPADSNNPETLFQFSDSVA
# T10 sequence (Q15303 26-1308): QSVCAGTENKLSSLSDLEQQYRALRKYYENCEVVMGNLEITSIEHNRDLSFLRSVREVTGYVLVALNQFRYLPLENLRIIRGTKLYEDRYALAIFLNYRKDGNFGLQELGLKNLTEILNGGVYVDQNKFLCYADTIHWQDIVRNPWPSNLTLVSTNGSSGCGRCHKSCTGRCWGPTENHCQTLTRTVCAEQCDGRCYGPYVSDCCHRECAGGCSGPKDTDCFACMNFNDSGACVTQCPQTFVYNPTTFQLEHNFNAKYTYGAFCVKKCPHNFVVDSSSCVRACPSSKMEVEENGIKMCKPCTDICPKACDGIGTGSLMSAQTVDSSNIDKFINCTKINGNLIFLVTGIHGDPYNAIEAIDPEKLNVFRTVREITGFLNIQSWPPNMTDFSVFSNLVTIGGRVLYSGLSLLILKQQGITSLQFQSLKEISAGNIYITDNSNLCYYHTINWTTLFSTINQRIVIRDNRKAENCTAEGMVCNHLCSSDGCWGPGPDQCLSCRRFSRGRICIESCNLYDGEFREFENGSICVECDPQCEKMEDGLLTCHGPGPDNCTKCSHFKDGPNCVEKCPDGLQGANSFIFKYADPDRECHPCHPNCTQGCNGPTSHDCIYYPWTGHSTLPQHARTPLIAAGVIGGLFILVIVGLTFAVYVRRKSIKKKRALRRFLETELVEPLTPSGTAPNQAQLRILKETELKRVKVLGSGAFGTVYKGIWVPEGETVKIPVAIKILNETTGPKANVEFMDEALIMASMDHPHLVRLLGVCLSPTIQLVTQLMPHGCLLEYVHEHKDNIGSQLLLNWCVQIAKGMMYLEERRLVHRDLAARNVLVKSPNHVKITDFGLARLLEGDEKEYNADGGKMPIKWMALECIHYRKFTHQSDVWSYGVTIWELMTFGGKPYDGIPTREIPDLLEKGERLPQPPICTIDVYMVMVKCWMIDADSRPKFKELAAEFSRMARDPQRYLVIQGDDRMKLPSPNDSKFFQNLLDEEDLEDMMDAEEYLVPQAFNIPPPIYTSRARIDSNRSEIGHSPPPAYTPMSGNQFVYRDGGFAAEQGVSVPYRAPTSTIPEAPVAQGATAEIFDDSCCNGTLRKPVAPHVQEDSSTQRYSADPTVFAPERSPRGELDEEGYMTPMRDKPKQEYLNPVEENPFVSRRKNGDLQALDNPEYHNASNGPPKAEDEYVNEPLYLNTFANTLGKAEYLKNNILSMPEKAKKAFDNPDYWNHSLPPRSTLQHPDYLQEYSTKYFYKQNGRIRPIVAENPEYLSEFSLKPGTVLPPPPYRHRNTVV
# T13 sequence (P35968 20-1356): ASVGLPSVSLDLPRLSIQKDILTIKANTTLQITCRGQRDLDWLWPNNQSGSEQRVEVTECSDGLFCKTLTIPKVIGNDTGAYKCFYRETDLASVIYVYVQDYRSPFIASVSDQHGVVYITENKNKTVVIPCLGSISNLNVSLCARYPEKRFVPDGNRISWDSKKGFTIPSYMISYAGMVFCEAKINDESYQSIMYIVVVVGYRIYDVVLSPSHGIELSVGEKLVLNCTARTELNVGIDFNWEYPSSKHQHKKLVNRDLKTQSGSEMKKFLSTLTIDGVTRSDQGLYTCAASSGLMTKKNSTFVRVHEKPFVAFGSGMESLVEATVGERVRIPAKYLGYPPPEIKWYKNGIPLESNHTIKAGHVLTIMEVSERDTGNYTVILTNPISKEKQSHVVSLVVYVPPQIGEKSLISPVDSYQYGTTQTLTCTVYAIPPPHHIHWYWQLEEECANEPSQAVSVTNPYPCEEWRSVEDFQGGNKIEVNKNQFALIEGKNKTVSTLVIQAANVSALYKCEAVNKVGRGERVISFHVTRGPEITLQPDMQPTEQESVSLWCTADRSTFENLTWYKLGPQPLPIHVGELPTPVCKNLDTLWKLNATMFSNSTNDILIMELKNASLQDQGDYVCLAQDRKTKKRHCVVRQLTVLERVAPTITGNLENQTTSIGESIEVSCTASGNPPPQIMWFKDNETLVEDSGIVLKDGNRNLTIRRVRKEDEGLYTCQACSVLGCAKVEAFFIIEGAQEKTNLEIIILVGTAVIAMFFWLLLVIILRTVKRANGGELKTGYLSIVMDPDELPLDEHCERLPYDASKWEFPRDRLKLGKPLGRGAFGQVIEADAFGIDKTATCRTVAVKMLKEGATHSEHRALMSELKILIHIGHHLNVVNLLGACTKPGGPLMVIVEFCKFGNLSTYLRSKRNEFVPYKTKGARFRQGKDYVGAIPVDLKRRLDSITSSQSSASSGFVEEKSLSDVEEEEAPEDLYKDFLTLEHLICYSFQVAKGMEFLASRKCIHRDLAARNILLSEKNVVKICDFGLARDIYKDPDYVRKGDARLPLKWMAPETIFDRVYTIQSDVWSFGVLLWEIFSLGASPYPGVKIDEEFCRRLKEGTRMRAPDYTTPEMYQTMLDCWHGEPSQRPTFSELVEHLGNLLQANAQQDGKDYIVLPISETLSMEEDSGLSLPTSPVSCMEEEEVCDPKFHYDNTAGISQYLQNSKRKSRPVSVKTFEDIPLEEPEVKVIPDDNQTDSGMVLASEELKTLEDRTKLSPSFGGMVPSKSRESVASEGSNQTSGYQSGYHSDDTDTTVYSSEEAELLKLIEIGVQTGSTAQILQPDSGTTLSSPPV
SMILES,inhibition at 1 µM (TEK (Tie2)) [%],inhibition at 10 µM (TEK (Tie2)) [%],inhibition at 1 µM (CAMK2B (CaMKII beta)) [%],inhibition at 10 µM (CAMK2B (CaMKII beta)) [%],inhibition at 1 µM (FGFR2 N549H) [%],inhibition at 10 µM (FGFR2 N549H) [%],inhibition at 1 µM (PIM1) [%],inhibition at 10 µM (PIM1) [%],inhibition at 1 µM (CAMK1D (CaMKI delta)) [%],inhibition at 10 µM (CAMK1D (CaMKI delta)) [%],inhibition at 1 µM (GRK5) [%],inhibition at 10 µM (GRK5) [%],inhibition at 1 µM (PRKCG (PKC gamma)) [%],inhibition at 10 µM (PRKCG (PKC gamma)) [%],inhibition at 1 µM (FGFR2) [%],inhibition at 10 µM (FGFR2) [%],inhibition at 1 µM (CAMK2A (CaMKII alpha)) [%],inhibition at 10 µM (CAMK2A (CaMKII alpha)) [%],inhibition at 1 µM (ERBB4 (HER4)) [%],inhibition at 10 µM (ERBB4 (HER4)) [%],further results
"COc1ccc2c(c1OC)c(=O)n1c3ccc(O)cc3c3ccnc2c31 [MW01, 5-Hydroxy-10,11-dimethoxy-9H-benzo[c]indolo[3,2,1-ij][1,5]naphthyridin-9-one]",19,5,9,37,0,13,11,24,5,9,-3,0,13,16,13,11,12,39,-3,4,inhibition at 1 µM (LRRK2 R1441C): 83%; inhibition at 10 µM (LRRK2 R1441C): 86%; inhibition at 1 µM (MARK2): 10%; inhibition at 10 µM (MARK2): 5%; inhibition at 1 µM (KDR (VEGFR2)): 24%; inhibition at 10 µM (KDR (VEGFR2)): 54%; inhibition at 1 µM (RPS6KA5 (MSK1)): 5%; inhibition at 10 µM (RPS6KA5 (MSK1)): 25%; inhibition at 1 µM (SPHK2): -16%; inhibition at 10 µM (SPHK2): -8%
"COc1ccc2cc3c(N)nn(C(=O)c4cccc(N(C)C)c4)c3nc2c1 [MW05, (3-Amino-7-methoxypyrazolo[3,4-b]quinolin-1-yl)-[3-(dimethylamino)phenyl]methanone]",-2,12,5,3,-4,-22,8,-9,1,-1,-2,0,11,-3,0,-5,9,16,5,-11,inhibition at 1 µM (LRRK2 R1441C): -2%; inhibition at 10 µM (LRRK2 R1441C): 3%; inhibition at 1 µM (MARK2): 3%; inhibition at 10 µM (MARK2): 5%; inhibition at 1 µM (KDR (VEGFR2)): 7%; inhibition at 10 µM (KDR (VEGFR2)): -15%; inhibition at 1 µM (RPS6KA5 (MSK1)): 2%; inhibition at 10 µM (RPS6KA5 (MSK1)): -14%; inhibition at 1 µM (SPHK2): -7%; inhibition at 10 µM (SPHK2): -4%
